Source: patent publication US20190345150A1, “MICROBIOCIDAL OXADIAZOLE DERIVATIVES” (SYNGENTA PARTICIPATIONS AG, priority 2016, published 2019)
Where “and” joins values, the source holds several entries; their conditions need not be identical. Equal entries are not always repeated.

Tests used:
[1] = system: Phakopsora pachyrhizi; test: Phakopsora pachyrhizi / soybean / leaf disc preventative (Asian soybean rust); format: in vivo; settings: foliar, 200 ppm in the applied formulation, soybean leaf disks, preventative (inoculated 1 day after application), compared to untreated control, read-out: disease control
Experimental: Leaf disks or leaf segments of various plant species are cut from plants grown in a greenhouse. The cut leaf disks or segments are placed in multiwell plates (24-well format) onto water agar. The leaf disks are sprayed with a test solution before (preventative) or after (curative) inoculation. Compounds to be tested are prepared as DMSO solutions (max. 10 mg/ml) which are diluted to the appropriate concentration with 0.025% Tween20 just before spraying. The inoculated leaf disks or segments are incubated under defined conditions (temperature, relative humidity, light, etc.) according to the respective test system. A single evaluation of disease level is carried out 3 to 14 days after inoculation, depending on the pathosystem. Percent disease control relative to the untreated check leaf disks or segments is then calculated. Soybean leaf disks are placed on water agar in multiwell plates (24-well format) and sprayed with the formulated test compound diluted in water. One day after application leaf discs are inoculated by spraying a spore suspension on the lower leaf surface. After an incubation period in a climate cabinet of 24-36 hours in darkness at 20° C. and 75% rh leaf disc are kept at 20° C. with 12 h light/day and 75% rh. The activity of a compound is assessed as percent disease control compared to untreated when an appropriate level of disease damage appears in untreated check leaf disks (12 to 14 days after application).

[2] = system: Puccinia recondita f. Sp. Tritici; test: Puccinia recondita f. sp. tritici / wheat / leaf disc curative (brown rust); format: in vivo; settings: foliar, 24 h, 200 ppm in the applied formulation, wheat leaf segments cv. Kanzler, curative (applied 1 day after inoculation), compared to untreated control, read-out: disease control
Experimental: Leaf disks or leaf segments of various plant species are cut from plants grown in a greenhouse. The cut leaf disks or segments are placed in multiwell plates (24-well format) onto water agar. The leaf disks are sprayed with a test solution before (preventative) or after (curative) inoculation. Compounds to be tested are prepared as DMSO solutions (max. 10 mg/ml) which are diluted to the appropriate concentration with 0.025% Tween20 just before spraying. The inoculated leaf disks or segments are incubated under defined conditions (temperature, relative humidity, light, etc.) according to the respective test system. A single evaluation of disease level is carried out 3 to 14 days after inoculation, depending on the pathosystem. Percent disease control relative to the untreated check leaf disks or segments is then calculated. Wheat leaf segments cv. Kanzler are placed on agar in multiwell plates (24-well format). The leaf segments are then inoculated with a spore suspension of the fungus. Plates were stored in darkness at 19° C. and 75% relative humidity. The formulated test compound diluted in water was applied 1 day after inoculation. The leaf segments were incubated at 19° C. and 75% relative humidity under a light regime of 12 hours light/12 hours darkness in a climate cabinet and the activity of a compound was assessed as percent disease control compared to untreated when an appropriate level of disease damage appears in untreated check leaf segments (6 to 8 days after application).

[3] = system: Puccinia recondita f. Sp. Tritici; test: Puccinia recondita f. sp. tritici / wheat / leaf disc preventative (brown rust); format: in vivo; settings: foliar, 200 ppm in the applied formulation, wheat leaf segments cv. Kanzler, preventative (inoculated 1 day after application), compared to untreated control, read-out: disease control
Experimental: Leaf disks or leaf segments of various plant species are cut from plants grown in a greenhouse. The cut leaf disks or segments are placed in multiwell plates (24-well format) onto water agar. The leaf disks are sprayed with a test solution before (preventative) or after (curative) inoculation. Compounds to be tested are prepared as DMSO solutions (max. 10 mg/ml) which are diluted to the appropriate concentration with 0.025% Tween20 just before spraying. The inoculated leaf disks or segments are incubated under defined conditions (temperature, relative humidity, light, etc.) according to the respective test system. A single evaluation of disease level is carried out 3 to 14 days after inoculation, depending on the pathosystem. Percent disease control relative to the untreated check leaf disks or segments is then calculated. Wheat leaf segments cv. Kanzler were placed on agar in multiwell plates (24-well format) and sprayed with the formulated test compound diluted in water. The leaf disks were inoculated with a spore suspension of the fungus 1 day after application. The inoculated leaf segments were incubated at 19° C. and 75% relative humidity (rh) under a light regime of 12 hours light/12 hours darkness in a climate cabinet and the activity of a compound was assessed as percent disease control compared to untreated when an appropriate level of disease damage appears in untreated check leaf segments (7 to 9 days after application).

[4] = system: Glomerella laqenarium (Colletotrichum laqenarium); test: Glomerella lagenarium liquid culture / cucumber / preventative (anthracnose); format: cell-based; settings: 20 ppm in the applied formulation, liquid culture in PDB, growth inhibition measured photometrically 3 to 4 days after application, compared to untreated control, read-out: disease control
Experimental: Mycelia fragments or conidia suspensions of a fungus prepared either freshly from liquid cultures of the fungus or from cryogenic storage, are directly mixed into nutrient broth. DMSO solutions of the test compound (max. 10 mg/ml) are diluted with 0.025% Tween20 by a factor of 50 and 10 μl of this solution is pipetted into a microtiter plate (96-well format). The nutrient broth containing the fungal spores/mycelia fragments is then added to give an end concentration of the tested compound. The test plates are incubated in the dark at 24° C. and 96% relative humidity. The inhibition of fungal growth is determined photometrically after 2 to 7 days, depending on the pathosystem, and percent antifungal activity relative to the untreated check is calculated. Conidia of the fungus from cryogenic storage are directly mixed into nutrient broth (PDB—potato dextrose broth). After placing a (DMSO) solution of test compound into a microtiter plate (96-well format), the nutrient broth containing the fungal spores is added. The test plates are incubated at 24° C. and the inhibition of growth is measured photometrically 3 to 4 days after application.

Structure (SMILES)	pest or weed control at 200 ppm [1]	melting point	pest or weed control at 200 ppm [2]	pest or weed control at 200 ppm [3]	inhibition of growth at 20 ppm [4]
CC1(C)CON=C1OCc1ccc(-c2noc(C(F)(F)F)n2)cc1 [Compound 1.1, 3-[4-[(4,4-dimethyl-5H-isoxazol-3-yl)oxymethyl]phenyl]-5-(trifluoromethyl)-1,2,4-oxadiazole]	≥ 80%	50.2 to 51.8 °C	≥ 80%	≥ 80%	≥ 80%
FC(F)(F)c1nc(-c2ccc(COC3=NOCC3)cc2)no1 [Compound 1.2, 3-[4-(4,5-dihydroisoxazol-3-yloxymethyl)phenyl]-5-(trifluoromethyl)-1,2,4-oxadiazole]	≥ 80%	97 to 101 °C and 97 to 100.9 °C	≥ 80%	≥ 80%	≥ 80%
CC1(C)CC(OCc2ccc(-c3noc(C(F)(F)F)n3)cc2)=NO1 [Compound 1.3, 3-[4-[(5,5-dimethyl-4H-isoxazol-3-yl)oxymethyl]phenyl]-5-(trifluoromethyl)-1,2,4-oxadiazole]	≥ 80%	107.9 to 108.6 °C			≥ 80%
FC(F)(F)c1nc(-c2ccc(COc3ccon3)cc2)no1 [Compound 1.4, 3-[4-(isoxazol-3-yloxymethyl)phenyl]-5-(trifluoromethyl)-1,2,4-oxadiazole]	≥ 80%	61.8 to 64.4 °C	≥ 80%	≥ 80%	≥ 80%
Cc1cc(OCc2ccc(-c3noc(C(F)(F)F)n3)cc2)no1 [Compound 1.5, 3-[4-[(5-methylisoxazol-3-yl)oxymethyl]phenyl]-5-(trifluoromethyl)-1,2,4-oxadiazole]	≥ 80%	81.2 to 82.6 °C	≥ 80%	≥ 80%	≥ 80%
Cn1nnnc1OCc1ccc(-c2noc(C(F)(F)F)n2)cc1 [Compound 1.8, 3-[4-[(1-methyltetrazol-5-yl)oxymethyl]phenyl]-5-(trifluoromethyl)-1,2,4-oxadiazole]	≥ 80%	113.3 to 114.2 °C	≥ 80%	≥ 80%	≥ 80%
Fc1ccccc1OCc1ccc(-c2noc(C(F)(F)F)n2)cc1 [Compound 1.11, 3-[4-[(2-fluorophenoxy)methyl]phenyl]-5-(trifluoromethyl)-1,2,4-oxadiazole]	≥ 80%	108 to 110 °C	≥ 80%	≥ 80%	≥ 80%
Fc1cc(COC2=NOCC2)ccc1-c1noc(C(F)(F)F)n1 [Compound 1.13, 3-[4-(4,5-dihydroisoxazol-3-yloxymethyl)-2-fluoro-phenyl]-5-(trifluoromethyl)-1,2,4-oxadiazole]	≥ 80%		≥ 80%	≥ 80%	≥ 80%
Fc1ccc(OCc2ccc(-c3noc(C(F)(F)F)n3)cc2)nc1 [Compound 1.16, 3-[4-[(5-fluoro-2-pyridyl)oxymethyl]phenyl]-5-(trifluoromethyl)-1,2,4-oxadiazole]	≥ 80%	84 to 86 °C			
Cn1ccc(OCc2ccc(-c3noc(C(F)(F)F)n3)cc2)n1 [Compound 1.17, 3-[4-[(1-methylpyrazol-3-yl)oxymethyl]phenyl]-5-(trifluoromethyl)-1,2,4-oxadiazole]	≥ 80%	84.9 to 87.8 °C	≥ 80%	≥ 80%	≥ 80%
CC(=O)n1ccc(OCc2ccc(-c3noc(C(F)(F)F)n3)cc2)n1 [Compound 1.18, 1-[3-[[4-[5-(trifluoromethyl)-1,2,4-oxadiazol-3-yl]phenyl]methoxy]pyrazol-1-yl]ethanone]	≥ 80%	86.1 to 87.3 °C	≥ 80%	≥ 80%	≥ 80%
Cc1cc(OCc2ccc(-c3noc(C(F)(F)F)n3)cc2)n[nH]1 [Compound 1.19, 3-[4-[(5-methyl-1H-pyrazol-3-yl)oxymethyl]phenyl]-5-(trifluoromethyl)-1,2,4-oxadiazole]	≥ 80%	137.4 to 141.8 °C	≥ 80%	≥ 80%	≥ 80%
CC(Oc1nnnn1C)c1ccc(-c2noc(C(F)(F)F)n2)cc1 (stereo not drawn) [Compound 1.22, 3-[4-[1-(1-methyltetrazol-5-yl)oxyethyl]phenyl]-5-(trifluoromethyl)-1,2,4-oxadiazole]	≥ 80%	104 to 106 °C	≥ 80%	≥ 80%	≥ 80%
CON=COCc1ccc(-c2noc(C(F)(F)F)n2)cc1 [Compound 1.23, [4-[5-(trifluoromethyl)-1,2,4-oxadiazol-3-yl]phenyl]methyl N-methoxymethanimidate]	≥ 80%		≥ 80%	≥ 80%	≥ 80%
CN(C)C(=O)OCc1ccc(-c2noc(C(F)(F)F)n2)cc1 [Compound 3.1, [4-[5-(trifluoromethyl)-1,2,4-oxadiazol-3-yl]phenyl]methyl N,N-dimethylcarbamate]	≥ 80%	95 to 97 °C	≥ 80%	≥ 80%	≥ 80%
O=C(NC1CC1)OCc1ccc(-c2noc(C(F)(F)F)n2)cc1 [Compound 3.2, [4-[5-(trifluoromethyl)-1,2,4-oxadiazol-3-yl]phenyl]methyl N-cyclopropylcarbamate]	≥ 80%		≥ 80%	≥ 80%	≥ 80%
C/C(=N/OCc1ccc(-c2noc(C(F)(F)F)n2)cc1)N1CCOCC1 [Compound 4.3, (Z)-1-morpholino-N-[[4-[5-(trifluoromethyl)-1,2,4-oxadiazol-3-yl]phenyl]methoxy]ethanimine]	≥ 80%			≥ 80%	≥ 80%
